The text below walks through data of US20110224208A1, “NOVEL INHIBITORS OF FLAVIVIRUS REPLICATION” (KATHOLIEKE UNIVERSITEIT LEUVEN, K.U. LEUVEN R&D, priority 2008, published 2011).

Data set [1] concerns HCV replicon I389luc-ubi-neo/NS3-3'/5.1. Description: Anti-HCV replicon assay (luciferase activity) in Huh-5-2 cells. Conditions: concentration required to inhibit luciferase activity in the replicon system by 50%. It counts as cell-based, Hepatitis C virus. A digest of the protocol: (§1)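 Huh-5-2 cells carrying the luciferase HCV replicon, seeded 24 h, then exposed to serial compound dilutions without G418 for 72 h at 37° C, 5% CO2. Replication read as luciferase luminescence, expressed as percentage of untreated cultures; culture density measured in parallel by MTS.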

Data set [2] can be described thus: Proliferation of exponentially growing Huh-5-2 cells (MTS method). Conditions: human, CC50, concentration required to inhibit the proliferation of exponentially growing Huh-5-2 cells by 50%. The method, boiled down:
as §1

In a further data set the test system is Huh-5-2 cells. The data set is described as above. Conditions: concentration required to inhibit the proliferation of exponentially growing Huh-5-2 cells by 50%. A digest of the protocol: as §1
For data set [3], the system named is HCV replicon (RNA) synthesis. The data set is described as follows: Quantitative analysis of HCV replicon RNA by Taqman real-time RT-PCR in Huh-5-2 cells. It counts as cell-based, Hepatitis C virus. How it is done:
Replicon cells were plated at 7.5×10^3 cells per well in a 96-well plate plates at 37° C. and 5% CO2 in Dulbecco's modified essential medium containing 10% fetal calf serum, 1% nonessential amino acids and 1 mg/ml Geneticin. After allowing 24 h for cell attachment, different dilutions of compound were added to the cultures. Plates were incubated for 5 days, at which time RNA was extracted using the Qiamp Rneazyi Kit (Qiagen, Hilden, Germany). […] After initial activation of uracil-N-glycosylase at 50° C. for 2 minutes, RT was performed at 60° C. for 30 minutes, followed by inactivation of uracil-N-glycosylase at 95° C. for 5 minutes. Subsequent PCR amplification consisted of 40 cycles of denaturation at 94° C. for 20 seconds and annealing and extension at 62° C. for 1 minute in an ABI 7700 sequence detector. For each PCR run, negative template and positive template samples were used. The cycle threshold value (Ct-value) is defined as the number of PCR cycles for which the signal exceeds the baseline, which defines a positive value. The sample was considered to be positive if the Ct-value was <50. Results are expressed as genomic equivalents (GE).

The mark [4] stands for this setting: Hepatitis C virus, Huh-5-2, concentration required to reduce the synthesis of HCV replicon by 50% as determined by real-time quantitative RT-PCR.
Where [5] appears, read: Hepatitis C virus, Huh-5-2, 72 h.

≈ marks a conversion by molar mass, not a printed value.

The compound `COCCN1C(=O)c2ccccc2C(C(=O)Nc2cccc(OC)c2)C1c1cccs1` (racemic) [C1, 2-(2-methoxyethyl)-N-(3-methoxyphenyl)-1-oxo-3-(thiophen-2-yl)-1,2,3,4-tetrahydroisoquinoline-4-carboxamide] returned an IC50 in data set [1] (72 hours, listed as C1 (cis)) of 0.3 µg/mL (≈ 0.687 µM). Further, the CC50 at 72 h in data set [2] (Table 4) is over 50 µg/mL. In the data set on Huh-5-2 cells (Table 2, listed as C1 (cis)), this compound yielded a CC50 of 83.7 µg/mL (≈ 192 µM). Besides, the EC50 in data set [3] (setting [4]) was found to be 24 µg/mL (≈ 55 µM).

`COCCN1C(=O)c2ccccc2C(C(=O)Nc2cccc(OC)c2)C1c1cccs1` (racemic) [C2, 2-(2-methoxyethyl)-N-(3-methoxyphenyl)-1-oxo-3-(thiophen-2-yl)-1,2,3,4-tetrahydroisoquinoline-4-carboxamide] had an IC50 in data set [1] (72 hours, listed as C2 (trans)) of 1.3 µg/mL (≈ 2.98 µM). The CC50 with Huh-5-2 cells (Table 2, listed as C2 (trans)) was 41.2 µg/mL (≈ 94.4 µM); with Huh-5-2 cells (Table 4) it was over 50 µg/mL. Also, the EC50 in data set [3] (concentration required to reduce the synthesis of HCV replicon by 50% as determined by real-time quantitative RT-PCR) is 17.000 µg/mL (≈ 38.9 µM).

As to `COCCN1C(=O)c2c(Cl)cccc2C(C(=O)Nc2cccc(OC)c2)C1c1cccs1` (stereo not shown) [C24, 8-Chloro-2-(2-methoxyethyl)-N-(3-methoxyphenyl)-1-oxo-3-(thiophen-2-yl)-1,2,3,4-tetrahydroisoquinoline-4-carboxamide], the IC50 in data set [1] (setting [5]) is 35.7 µg/mL (≈ 75.9 µM). In the data set on Huh-5-2 cells (Table 2), the CC50 is 125 µg/mL (≈ 265 µM).

`COCCN1C(=O)c2cc(F)ccc2C(C(=O)Nc2cccc(OC)c2)C1c1cccs1` (stereo not shown) [C52, 7-Fluoro-2-(2-methoxyethyl)-N-(3-methoxyphenyl)-1-oxo-3-(thiophen-2-yl)-1,2,3,4-tetrahydroisoquinoline-4-carboxamide] gave an IC50 in data set [1] (setting [5]) of 0.4 µg/mL (≈ 0.88 µM). Moreover, the results for the CC50 at 72 h in data set [2] (Table 2) and in data set [2] (Table 4) were 81.2 µg/mL (≈ 179 µM) and over 50 µg/mL, respectively. Besides, in data set [3] (setting [4]), the EC50 was under 0.4 µg/mL.

In turn, `COCCN1C(=O)c2ccccc2C(C(=O)Nc2cccc(OC)c2)C1Cc1ccccc1` (stereo not shown) [C68, 3-Benzyl-2-(2-methoxyethyl)-N-(3-methoxyphenyl)-1-oxo-1,2,3,4-tetrahydroisoquinoline-4-carboxamide] yielded an IC50 in data set [1] (setting [5]) of 70.6 µg/mL (≈ 159 µM). In the data set with Huh-5-2 cells (Table 2), this compound displayed a CC50 of 125 µg/mL (≈ 281 µM).

Take `COCCN1C(=O)c2ccccc2C(C(=O)Nc2cccc(OC)c2)C1C#C[Si](C)(C)C` (stereo not shown) [C70, 2-(2-methoxyethyl)-N-(3-methoxyphenyl)-1-oxo-3-((trimethylsilyl)ethynyl)-1,2,3,4-tetrahydroisoquinoline-4-carboxamide]: the IC50 in data set [1] (setting [5]) is 3.33 µg/mL (≈ 7.39 µM). Moreover, the CC50 in the data set on Huh-5-2 cells (Table 2) was found to be 125 µg/mL (≈ 277 µM).

In turn, `COCCN1C(=O)c2ccccc2C(C(=O)Nc2cccc(OC)c2)C1CC(F)(F)F` (stereo not shown) [C71, 2-(2-methoxyethyl)-N-(3-methoxyphenyl)-1-oxo-3-(2,2,2-trifluoroethyl)-1,2,3,4-tetrahydroisoquinoline-4-carboxamide] had an IC50 in data set [1] (setting [5]) of 12.6 µg/mL (≈ 28.8 µM). This compound returned a CC50 in the data set with Huh-5-2 cells (Table 2) of 125 µg/mL (≈ 286 µM).

For the compound `COCCN1C(=O)c2ccccc2C(CNc2ccc(Cl)cc2)C1c1cccs1` (stereo not shown) [C78, 4-((4-chlorophenylamino)methyl)-2-(2-methoxyethyl)-3-(thiophen-2-yl)-3,4-dihydroisoquinolin-1(2H)-one], in data set [1] (setting [5]), it took 50.5 µg/mL (≈ 118 µM) to reach half-maximal inhibition (IC50). The cytotoxic concentration (CC50) in the data set on Huh-5-2 cells (Table 2) was determined as 125 µg/mL (≈ 293 µM).

`COCCN1C(=O)c2ccccc2C(C(=O)NCc2ccc(OC)cc2)C1c1cccs1` (stereo not shown) [C79, N-(4-methoxybenzyl)-2-(2-methoxyethyl)-1-oxo-3-(thiophen-2-yl)-1,2,3,4-tetrahydroisoquinoline-4-carboxamide]: the IC50 in data set [1] (setting [5]) amounted to 68.2 µg/mL (≈ 151 µM). The compound also displayed a CC50 in the data set on Huh-5-2 cells (Table 2) of 125 µg/mL (≈ 277 µM).

Regarding `COCCN1C(=O)c2ccccc2C(C(=O)Nc2ccc(-n3cccc3)cc2)C1c1cccs1` (stereo not shown) [C116, N-(4-(1H-pyrrol-1-yl)phenyl)-2-(2-methoxyethyl)-1-oxo-3-(thiophen-2-yl)-1,2,3,4-tetrahydroisoquinoline-4-carboxamide], 0.04 µg/mL (≈ 0.0848 µM) corresponded to half-maximal inhibition in data set [1] (setting [5]) (IC50). Moreover, the CC50 at 72 h in data set [2] (Table 2) was 72.4 µg/mL (≈ 154 µM); in data set [2] (Table 4) it was over 50 µg/mL. In data set [3] (setting [4]), the response was half-maximal at 0.062 µg/mL (≈ 0.131 µM) (EC50).

In data set [1] (setting [5]), `C#CC1C(C(=O)Nc2ccc(-n3cccc3)cc2)c2ccccc2C(=O)N1CCOC` (stereo not shown) [C152, N-(4-(1H-pyrrol-1-yl)phenyl)-3-ethynyl-2-(2-methoxyethyl)-1-oxo-1,2,3,4-tetrahydroisoquinoline-4-carboxamide] returned an IC50 of 0.2 µg/mL (≈ 0.484 µM). Besides, the figures for the CC50 at 72 h in data set [2] (Table 2) and in data set [2] (Table 4) were 30 µg/mL (≈ 72.6 µM) and over 30 µg/mL, respectively. The same compound returned an EC50 in data set [3] (setting [4]) of 0.2 µg/mL (≈ 0.484 µM).

`COCCN1C(=O)c2ccccc2C(C(=O)Nc2ccc(-c3ccco3)cc2)C1c1cccs1` (stereo not shown) [C159, N-(4-(furan-2-yl)phenyl)-2-(2-methoxyethyl)-1-oxo-3-(thiophen-2-yl)-1,2,3,4-tetrahydroisoquinoline-4-carboxamide]: in data set [1] (setting [5]), the IC50 came out at 0.028 µg/mL (≈ 0.0593 µM). The CC50 at 72 h in data set [2] (Table 2) was over 100 µg/mL; in data set [2] (Table 4) it was over 50 µg/mL. This compound had an EC50 in data set [3] (setting [4]) of 0.064 µg/mL (≈ 0.135 µM).

Turning to `COCCN1C(=O)c2ccccc2C(C(=O)Nc2ccc(-c3ccccc3)nc2)C1c1cccs1` (stereo not shown) [C186, 2-(2-methoxyethyl)-1-oxo-N-(6-phenylpyridin-3-yl)-3-(thiophen-2-yl)-1,2,3,4-tetrahydroisoquinoline-4-carboxamide], in data set [1] (setting [5]), the IC50 amounted to 0.04 µg/mL (≈ 0.0827 µM). In addition, the CC50 at 72 h is 2.79 µg/mL (≈ 5.77 µM) in data set [2] (Table 2) and over 50 µg/mL in data set [2] (Table 4). The EC50 in data set [3] (setting [4]) was 0.045 µg/mL (≈ 0.0931 µM).
